{"source": "patent US20250057962A1", "about": "“PROCESSABLE COMPOSITIONS AND USE FOR THE SAME” (Ripple Therapeutics Corporation, priority 2021, published 2025)", "origin": "cited, not measured here", "conditions": "given once a day"}
{"smiles": "CC(C)OC(=O)CCC/C=C\\C[C@@H]1[C@@H](CC[C@@H](O)CCc2ccccc2)[C@H](O)C[C@@H]1O", "note": "[latanoprost]", "values": [{"measurement": "mean IOP lowering", "value": "about 35%"}]}
